# Marks after values point to notes of the source that are not given here.
# Details: pH 2.3
row,Log P,SMILES
1,2.92,CCOC(=O)C(C#N)=C(NC(C)c1nccs1)c1cccnc1OCC (racemic) [Compound 148]

# Same assay, conditions: pH 2.7
row,SMILES,Log P
1,CCOC(=O)C(C#N)=C(NC(C)c1ccccn1)c1c(C(F)F)nn(C)c1Cl (racemic) [Compound 156],2.81^[a]
2,CCOC(=O)C(C#N)=C(NC(C)c1ccccn1)c1ccsc1I (racemic) [Compound 163],3.03^[a]
3,CCOC(=O)C(C#N)=C(NC(C)Cc1c[nH]c2ccccc12)c1ccsc1I (racemic) [Compound 164],3.8^[a]
4,CCOC(=O)C(C#N)=C(NC(C)c1nc(C)cs1)c1sccc1C(F)(F)F (racemic) [Compound 174],3.58^[a]
5,CCOC(=O)C(C#N)=C(NC(C)c1nccs1)c1cc(Cl)sc1Cl (racemic) [Compound 221],3.65^[a]
6,CCOC(=O)C(C#N)=C(NC(C)c1ccccn1)c1cc(Cl)sc1Cl (racemic) [Compound 222],2.41^[a]
7,CCOC(=O)C(C#N)=C(NC(C)c1nccs1)c1cnc(Cl)cc1Cl (racemic) [Compound 223],3^[a]
8,CCOC(=O)C(C#N)=C(NC(C)c1nccs1)c1cccnc1C(F)(F)F (racemic) [Compound 232],2.9^[a]
9,CCOC(=O)C(C#N)=C(NC(C)c1ccccn1)c1cccnc1C(F)(F)F (racemic) [Compound 233],2.88^[a]
10,CCOC(=O)C(C#N)=C(NC(C)c1nccs1)c1c(C(F)F)nn(C)c1Cl (racemic) [Compound 234],2.77^[a]
11,CCOC(=O)C(C#N)=C(NC(C)Cc1c[nH]c2ccccc12)c1c(C(F)F)nn(C)c1Cl (racemic) [Compound 237],3.42^[a]
12,CCOC(=O)C(C#N)=C(NC(C)c1nccs1)c1sc(Cl)nc1Cl (racemic) [Compound 242],3.27^[a]
13,CCOC(=O)C(C#N)=C(NC(C)c1cccs1)c1ccsc1Br (racemic) [Compound 250],3.99^[a]
14,CCOC(=O)C(C#N)=C(NC(C)c1nccs1)c1cc(Cl)ncc1Cl (racemic) [Compound 252],3.15^[a]
15,CCOC(=O)C(C#N)=C(NC(C)c1nn(C)c(=O)n1C)c1cc(Cl)ncc1Cl (racemic) [Compound 255],3.76^[a]
16,CCOC(=O)C(C#N)=C(NC(C)c1nccs1)c1cnccc1C(F)(F)F (racemic) [Compound 256],2.7^[a]
17,CCOC(=O)C(C#N)=C(NC(C)c1ccccn1)c1ccncc1Cl (racemic) [Compound 260],2.54^[a]
18,CCOC(=O)C(C#N)=C(NC(C)c1ccn(C)n1)c1cccnc1C(F)F (racemic) [Compound 263],2.18^[a]
19,CCOC(=O)C(C#N)=C(NC(C)c1ccccn1)c1cccnc1C(F)F (racemic) [Compound 264],2.46^[a]

row,SMILES,Log P
1,CCOC(=O)C(C#N)=C(NC(C)c1nccs1)c1cccnc1C(F)F (racemic) [Compound 266],2.39^[a]
2,CCOC(=O)C(C#N)=C(NC(C)c1ccccn1)c1cn(C)cc1C(F)(F)F (racemic) [Compound 270],2.92^[a]
3,CCOC(=O)C(C#N)=C(NC(C)c1nccs1)c1cn(C)cc1C(F)(F)F (racemic) [Compound 271],2.97^[a]
4,CCOC(=O)C(C#N)=C(NC(C)CN1CCCCC1)c1cccnc1Cl (racemic) [Compound 273],1.2^[a]
5,CCOC(=O)C(C#N)=C(NC(C)CN1CCOCC1)c1cccnc1Cl (racemic) [Compound 274],1.3^[a]
6,CCOC(=O)C(C#N)=C(NC(C)c1cscn1)c1cccnc1Cl (racemic) [Compound 275],2.4^[a]
7,CCOC(=O)C(C#N)=C(NC(C)c1ccn(C)n1)c1cccnc1Cl (racemic) [Compound 276],2.3^[a]
8,CCOC(=O)C(C#N)=C(NC(C)c1c(C)nn(C)c1C)c1cccnc1Cl (racemic) [Compound 277],2.3^[a]
9,CCOC(=O)C(C#N)=C(NC(C)Cn1cccn1)c1cccnc1Cl (racemic) [Compound 278],2.23^[a]
10,CCOC(=O)C(C#N)=C(NC(C)c1nc2ccccc2[nH]1)c1cccnc1Cl (racemic) [Compound 279],2^[a]
11,CCOC(=O)C(C#N)=C(NC(C)c1c(C)sc2c1CCCC2)c1cccnc1Cl (racemic) [Compound 280],4.4^[a]
12,CCOC(=O)C(C#N)=C(NC(C)c1ccc(Cl)cc1)c1cc(Cl)sc1Cl (racemic) [Compound 499],4.96^[a]
13,CCOC(=O)C(C#N)=C(NC(C)c1ccc(Cl)cc1)c1cn(C)nc1OC (racemic) [Compound 506],3.51^[a]
14,CCOC(=O)C(C#N)=C(Nc1ccccc1SC)c1cn(C)nc1C(C)F (racemic) [Compound 521],3.15^[a]
15,CCOC(=O)C(C#N)=C(NC(C)c1ccc(F)cc1)c1ccsc1Br (racemic) [Compound 531],3.89^[a]
16,CCOC(=O)C(C#N)=C(NC(C)CCc1ccccc1)c1ccsc1Br (racemic) [Compound 538],4.56^[a]
17,CCOC(=O)C(C#N)=C(NC(C)c1ccc(Cl)cc1)c1ccncc1Cl (racemic) [Compound 541],3.78^[a]
18,CCOC(=O)C(C#N)=C(NC(C)c1ccc(Cl)cc1)c1ccnc(Cl)c1Cl (racemic) [Compound 544],4.21^[a]

# Other lines, results leading:
row,Log P,SMILES
1,4.46^[a],CCOC(=O)C(C#N)=C(NC(c1cc2ccccc2s1)C(F)(F)F)c1c(C)nn(C)c1Cl (racemic) [Compound 137]
2,2.75^[a],CCOC(=O)C(C#N)=C(NC(C)c1ccccn1)c1cn(C)nc1C(F)(F)F (racemic) [Compound 140]
3,3.13^[a],CCOC(=O)C(C#N)=C(NC(C)c1nccs1)c1sc(C)nc1C(F)(F)F (racemic) [Compound 142]
4,3.83^[a],CCOC(=O)C(C#N)=C(NC(C)c1nc(C)c(C)s1)c1sc(C)nc1C(F)(F)F (racemic) [Compound 143]
5,3.85^[a],CCOC(=O)C(C#N)=C(NC(C)Cc1cc2ccccc2[nH]1)c1sc(C)nc1C(F)(F)F (racemic) [Compound 145]
6,3.12^[a],CCOC(=O)C(C#N)=C(NC(C)c1ccccn1)c1sc(C)nc1C(F)(F)F (racemic) [Compound 146]
7,4.46^[a],CCOC(=O)C(C#N)=C(NC(c1cc2ccccc2s1)C(F)(F)F)c1cn(C)nc1C(F)(F)F (racemic) [Compound 147]
8,3.75^[a],CCOC(=O)C(C#N)=C(NC(C)c1nc(C)c(C)s1)c1ccsc1I (racemic) [Compound 157]
9,3.08^[a],CCOC(=O)C(C#N)=C(NC(C)c1nccs1)c1ccsc1I (racemic) [Compound 158]
10,3.05^[a],CCOC(=O)C(C#N)=C(NC(C)c1ccccn1)c1sccc1Cl (racemic) [Compound 160]
11,4.89^[a],CCOC(=O)C(C#N)=C(NC(c1cc2ccccc2s1)C(F)(F)F)c1sccc1Cl (racemic) [Compound 162]
12,4.81^[a],CCOC(=O)C(C#N)=C(NC(c1cc2ccccc2s1)C(F)(F)F)c1ccsc1I (racemic) [Compound 165]
13,3.46^[a],CCOC(=O)C(C#N)=C(NC(C)c1ncc(C)s1)c1sccc1Br (racemic) [Compound 169]
14,2.8^[a],COC(=O)C(C#N)=C(NC(C)c1sc(C)nc1C)c1sc(C)nc1C(F)(F)F (racemic) [Compound 179]
15,3.04^[a],COC(=O)C(C#N)=C(NC(C)c1nc(C)cs1)c1sc(C)nc1C(F)(F)F (racemic) [Compound 180]
16,3.09^[a],COC(=O)C(C#N)=C(NC(C)c1ncc(C)s1)c1sc(C)nc1C(F)(F)F (racemic) [Compound 182]

row,Log P,SMILES
1,2.43^[a],CCOC(=O)C(C#N)=C(NC(C)c1sc(C)nc1C)c1cn(C)nc1C(F)F (racemic) [Compound 187]
2,2.53^[a],CCOC(=O)C(C#N)=C(NC(C)c1nccs1)c1ncccc1Br (racemic) [Compound 224]
3,3.11^[a],CCOC(=O)C(C#N)=C(NC(C)c1nccs1)c1ncc(Cl)cc1Cl (racemic) [Compound 225]
4,2.26^[a],CCOC(=O)C(C#N)=C(NC(C)c1nccs1)c1cn(C)nc1OC (racemic) [Compound 229]
5,3.37^[a],CCOC(=O)C(C#N)=C(NC(C)c1nc(C)c(C)s1)c1c(C(F)F)nn(C)c1Cl (racemic) [Compound 235]
6,2.3^[a],C=Cc1nn(C)cc1C(NC(C)c1nccs1)=C(C#N)C(=O)OCC (racemic) [Compound 238]
7,3.21^[a],CCOC(=O)C(C#N)=C(NC(C)c1nccs1)c1nc(SC)ncc1Br (racemic) [Compound 240]
8,2.2[a],CCOC(=O)C(C#N)=C(NC(C)c1nc(C(C)C)no1)c1cc(Cl)ncc1Cl (racemic) [Compound 253]
9,3.83^[a],CCOC(=O)C(C#N)=C(NC(C)c1nc(C(F)(F)F)no1)c1cc(Cl)ncc1Cl (racemic) [Compound 254]
10,2.88^[a],CCOC(=O)C(C#N)=C(NC(C)c1nccs1)c1cnccc1Br (racemic) [Compound 257]
11,2.78^[a],CCOC(=O)C(C#N)=C(NC(C)c1nccs1)c1cnccc1Cl (racemic) [Compound 258]
12,2.9^[a],CCOC(=O)C(C#N)=C(NC(C)c1sc(C)nc1C)c1ccsc1Br (racemic) [Compound 261]
13,3.31^[a],CCOC(=O)C(C#N)=C(NC(C)c1nccs1)c1cc(Cl)cc(Cl)n1 (racemic) [Compound 265]
14,4.54^[a],CCOC(=O)C(C#N)=C(NC(C)c1ccc(Cl)cc1)c1sc(Cl)nc1Cl (racemic) [Compound 526]
15,4.2^[a],CCOC(=O)C(C#N)=C(NC(C)c1ccc(Cl)cc1)c1cn(C)cc1C(F)(F)F (racemic) [Compound 542]

# Same assay, conditions: pH 7.5
row,SMILES,Log P
1,CCOC(=O)C(C#N)=C(NC(C)c1nccs1)c1cccnc1OCC (racemic) [Compound 148],2.89
2,CCOC(=O)C(C#N)=C(NC(C)c1nccs1)c1cccnc1C (racemic) [Compound 152],2.17
3,CCOC(=O)C(C#N)=C(NC1CCOC1=O)c1cccnc1Cl (racemic) [Compound 231],1.77
4,C#CCOC(=O)C(C#N)=C(NC(C)c1nccs1)c1cccnc1Cl (racemic) [Compound 267],2.26
5,CC(NC(=C(C#N)C(=O)OC1CCC1)c1cccnc1Cl)c1nccs1 (racemic) [Compound 268],2.88
6,CNC(=O)C(C#N)=C(NC(C)c1nccs1)c1cccnc1Cl (racemic) [Compound 269],1.69
